Values after ≈ are worked out from the molar mass of the structure shown.
Experiments:
[1] = system: Microsporum canis; test: Antidermatophyte activity, plaque growth inhibition; type: cell-based, Microsporum canis CBS 131,110; conditions: 100 μg/mL, SDA, read-out: % Inhibition Growth M. canis
Procedure: (§1) The dermatophytes used in this study were Epidermophyton floccosum var. floccosum (Netherlands) CBS 358.93 strain, Trichophyton tonsurans (Netherlands) CBS 483.76 strain, Trichophyton mentagrophytes (Netherlands) CBS 160.66 strain, Microsporum canis (Iran) CBS 131,110 strain, and Microsporum gypseum (Iran) CBS 130,948 strain. All dermatophytes were maintained at 4 °C as agar slants on SDA. Candida albicans (ATCC 10231) was maintained at 4 °C on SDA plate.
(§2) The in vitro antifungal activity against the five selected dermatophytes was evaluated, as previously described, using the plaque growth inhibition method. All compounds were evaluated at the final concentration of 100 µg/mL. The percentages of growth inhibition according to Equation (5) were calculated as the average of three different experiments. I = [(C − T)/C] × 100%,(5) where I is the percentage value of growth inhibition, C is the measure of the diameter of the control circular mycelial inoculum (mm) and T is the extended diameter of the treated mycelial inoculum (mm).
(§3) All synthesized benzothiazole derivatives were evaluated to evaluate their in vitro antifungal activity against the five pathogenic dermatophytes that cause the most common dermatomycoses: Microsporum gypseum, Microsporum canis, Trichophyton mentagrophytes, Trichophyton tonsurans and Epidermophyton floccosum. All compounds were tested at a concentration of 100 µg/mL in DMSO, to evaluate the ability to inhibit the growth of dermatophyte cultures in Sabouraud Dextrose Agar (SDA). Briefly, room temperature incubation was performed and dermatophyte inhibition assessed by measuring the colony diameter at each disc for 7 days. The results are shown in Table 3 and were determined as the average of three different experiments.

[2] = system: Trichophyton mentagrophytes; test: as above; type: cell-based, Trichophyton mentagrophytes CBS 160.66; conditions: 100 μg/mL, SDA, read-out: % Inhibition Growth T. mentagrophytes
Procedure: as §1, §2, §3

[3] = system: Trichophyton tonsurans; test: as above; type: cell-based, Trichophyton tonsurans CBS 483.76; conditions: 100 μg/mL, SDA, read-out: % Inhibition Growth T. tonsurans
Procedure: as §1, §2, §3

[4] = system: Candida albicans (ATCC 10231); test: Anti-Candida albicans activity, broth microdilution MIC; type: cell-based; conditions: for MIC: Candida albicans, ATCC10231, 24 h of incubation; for activity against Candida albicans: after 24 h
Procedure: as §1
The suspension of Candida albicans consists of the dispersion of an aliquot in 5 mL of sterilized water. The compounds and fluconazole, used as a positive control, were solubilized in DMSO (12.80 mg/mL) as stock solutions. Minimum inhibitory concentration (MIC) was performed by the broth microdilution method according to the approved standard M27-A3, 2008 [NCCLS] of the Clinical and Laboratory Standards Institute/National Committee for Clinical Laboratory Standards (CLSI/NCCLS), as described previously.
Candida is a strain of fungi known to transmit infections to different parts of the human body, including the skin [43], which is why the synthesized compounds have also been tested against Candida Albicans (ATCC 10231). For each of them the minimum inhibitory concentration (MIC) was determined by the broth microdilution method using RPMI 1640 + MOPS as culture medium. […] Fluconazole was used as a positive control drug. […] Similarly to the results observed on dermatophytes, therefore, the unsubstituted compounds in position 6 of benzimidazole gave activity on yeasts, except for compound 8a.

[5] = system: dermatophytes; test: Antidermatophyte activity, all tested dermatophytes together; type: cell-based; conditions: read-out: percentages of inhibition of growth, all five dermatophytes
Procedure: as §2, §3

[6] = system: dermatophytes; set-up: method as in PMID 32967192; conditions: cited from earlier work

| MIC [4] [µg/mL] | SMILES | inhibition at 100 µg/mL [1] [%] | inhibition at 100 µg/mL [2] [%] | inhibition at 100 µg/mL [3] [%] | activity against Candida albicans [4] | inhibition at 100 µg/mL [5] [%] | IC50 towards the tested dermatophytes [6] |
| --- | --- | --- | --- | --- | --- | --- | --- |
| – | c1c[nH]c(-c2nc3ccccc3s2)c1 [Compound 8a, 2-(1H-Pyrrol-2-Yl)benzothiazole] | 25 ± 1.61 | 10 ± 0.51 | 7.46 ± 0.05 | – | – | – |
| 32 (≈ 159 µM) | c1coc(-c2nc3ccccc3s2)c1 [Compound 9a, 2-(Furan-2-Yl)benzothiazole] | 64 ± 0.72 | 54 ± 0.99 | 57.9 ± 0.76 | showed activity against Candida albicans after 24 h | 50 to 75 | – |
| 64 (≈ 294 µM) | c1csc(-c2nc3ccccc3s2)c1 [Compound 10a, 2-(Thiophen-2-Yl)benzothiazole] | 66 ± 0.82 | 61.95 ± 0.44 | 64.5 ± 0.92 | showed activity against Candida albicans after 24 h | 50 to 75 | – |
| – | NS(=O)(=O)c1ccc2nc(-c3cccs3)sc2c1 [Compound 10c, 2-(Thiophen-2-Yl)benzothiazole-6-Sulfonamide] | 14.3 ± 0.7 | 10.92 ± 0.09 | 6.35 ± 0.02 | – | – | – |
| – | c1c[nH]c(-c2nc3ccccc3[nH]2)c1 [Lead 10, reference compound] | 96.8 ± 3.56 | 96.3 ± 2.42 | 96.97 ± 0.62 | – | – | lower than 2 µg/mL |
